Laboratory results from US20260015364A1, “PIPERAZINE BRIDGE-SUBSTITUTED HETEROCYCLIC PYRIMIDINE COMPOUND” (MEDSHINE DISCOVERY INC., priority 2022, published 2026).

Columns and labels:
[1] = system: PANC04.03 cell subcutaneously transplanted tumors; assay: In vivo pharmacodynamic experiment of PANC04.03 tumor model; design: species or system Balb/c Nude mice; details: p.o., BID, 28 days of administration
Procedure: In vivo pharmacodynamics of PANC04.03 cell subcutaneously transplanted tumors in Balb/c Nude mice model with human pancreatic cancer
Cell culture: Human pancreatic cancer PANC04.03 cells were cultured in monolayer in vitro. The culture conditions were RPMI-1640+15% FBS+10 units/mL insulin, and cultured in a 37° C., 5% carbon dioxide incubator. Routine digestion with trypsin-EDTA was performed twice a week for passaging. When the cell saturation reached 80% to 90% and the required quantity was reached, the cells were harvested, counted, and resuspended in an appropriate amount of PBS to obtain a cell suspension with a cell density of 25×10^6 cells/mL.
Cell inoculation: 0.2 mL (5×10^6 cells/mouse) of PANC04.03 cells were subcutaneously inoculated into the right back of each mouse.
Experimental operation: When the average tumor volume reached 190 mm^3, the mice were randomly divided into groups according to the tumor volume, with 6 animals in each group. The blank group was administered with a dose of 0, and the test group was orally administered with a dose of 30 mg/kg, 100 mg/kg, 150 mg/kg, and a volume of 10 μL/g, respectively, and was administered twice a day for 28 days.
Tumor diameters were measured twice a week with a vernier caliper. The formula for calculating tumor volume is: V=0.5a×b^2, wherein a and b represent the long and short diameters of the tumor, respectively.
The tumor inhibitory efficacy of the compound was evaluated by TGI (%) or relative tumor proliferation rate T/C (%). Relative tumor proliferation rate T/C (%)=TRTV/CRTV×100% (TRTV:RTV of treatment group; CRTV:RTV of negative control group). The relative tumor volume (RTV) was calculated based on the results of tumor measurements. The calculation formula is RTV=Vt/V0, where V0 is the average tumor volume measured at the beginning of administration in groups (i.e., D0), and Vt is the average tumor volume measured at a certain measurement. TRTV and CRTV used the data from the same day.
TGI (%) reflected the tumor growth inhibition rate. […]

[2] = system: GP2D human colon cancer cells with KRAS^G12D mutation; assay: GP2D 3D CTG experiment (anti-proliferation); type: cell-based; details: 120 h, 5 days incubation
Excerpt: This experiment aims to verify the inhibitory effect of the compounds of the present disclosure on the proliferation of GP2D human colon cancer cells with KRAS^G12D mutation.
Cell line GP2D and DMEM medium were purchased from GIBCO, FBS was purchased from Hyclone, and L-glutamine was purchased from Invitrogen. The 96-well plate was purchased from Ultra Low Cluster. CellTiter-Glo® 3D Cell Viability Assay reagents (chemiluminescent 3D cell viability assay reagents) were purchased from Promega, and 2104 En Vision plate reader was purchased from PerkinElmer.
GP2D cells were cultured in an incubator at 37° C. with 5% CO2 under the conditions of DMEM+10% FBS+2 mM L-glutamine. Regular passaging was performed, and cells in the logarithmic growth phase were selected for plating. GP2D cells were seeded in a 96-well U-bottom cell culture plate, and each well of 135 μL cell suspension contained 6000 GP2D cells. The culture plate was cultured overnight in a 37° C., 5% CO2 incubator with 100% relative humidity. The test compound was diluted 5-fold to the eighth concentration using a pipette, ranging from 200 μM to 2.56 nM, and tested in duplicate. 78 μL of culture medium per well was added to an intermediate plate. […] A multimode microplate reader was used for reading. […]

[3] = In vivo pharmacokinetic experiment in CD-1 mice
Procedure: This experiment aims to investigate the pharmacokinetic properties of the compounds of the present disclosure administrated by oral and intravenous injection in CD-1 mice.
The test compound was mixed with 10% dimethyl sulfoxide+90% (10% hydroxypropyl-β-cyclodextrin (HP-β-CD) aqueous solution), vortexed, and sonicated to prepare 0.6, 3.0, and 10.0 mg/mL clear solutions, respectively. Male CD-1 mice aged 7 to 10 weeks were selected and intravenously injected (i.v.) with a solution of the candidate compound at a dose of 3 mg/kg (administration concentration of 0.6 mg/mL). The solution of the candidate compound was administered orally (p.o.) at a dose of 30 mg/kg (administration concentration of 3.0 mg/mL) or 100 mg/kg (administration concentration of 10.0 mg/mL). Whole blood was collected for a certain period of time and prepared into plasma. The drug concentration was analyzed by the LC-MS/MS method, and the pharmacokinetic parameters were calculated using Phoenix WinNonlin software (Pharsight, USA).

[4] = male, mouse, iv, 3 mg/kg, i.v. 3 mpk, plasma
[5] = male, mouse, po, 30 mg/kg, p.o. 30 mpk, plasma
[6] = male, mouse, po, 100 mg/kg, p.o. 100 mpk, plasma

C#Cc1c(F)ccc2cc(N)cc(-c3ncc4c(N5CC6CCC(C5)N6)nc(OC[C@@]56CC(=C)CN5C[C@@H]5C[C@@H]56)nc4c3F)c12 (single isomer, unassigned) [Compound 3]
TGI ([1]; 30 mpk): 95.41% | TGI ([1]; 100 mpk): 108.41% | TGI ([1]; 150 mpk): 115.80% | IC50 [2]: 0.54 nM | AUC(0-inf) [3, 4]: 1.66 µM·h | AUC(0-t) [3, 4]: 1.56 µM·h | Vd [3, 4]: 41.1 L/kg | clearance [3, 4]: 50.8 mL/min/kg | half-life [3, 4]: 9.3 h | AUC(0-inf) [3, 5]: 1.18 µM·h | AUC(0-t) [3, 5]: 1.15 µM·h | Cmax [3, 5]: 439 nM | Tmax [3, 5]: 0.583 h | half-life [3, 5]: 5.41 h | AUC(0-inf) [3, 6]: 13.3 µM·h | AUC(0-t) [3, 6]: 13.1 µM·h | Cmax [3, 6]: 3110 nM | Tmax [3, 6]: 1.25 h | half-life [3, 6]: 4.24 h | F ([3]; p.o. 100 mpk): 24.0%
